Reference: ChEMBL document CHEMBL5058564, “EUbOPEN Chemogenomics Library 2 (Incucyte)” (2022)

What was measured:
Format in all cases: toxicity, cell-based
[1] = system: Fibroblast; assay: Incucyte cell viability with human fibroblast; conditions: 10 µM, compound concentration 10 uM
[2] = system: HEK-293T; assay: Incucyte cell viability with HEK293T; conditions: human, 10 µM, compound concentration 10 uM
[3] = system: U2OS; assay: Incucyte cell viability with U2OS; conditions: human, 10 µM, compound concentration 10 uM
[4] = 0 h, replicate number 2, timepoint 0 hours
[5] = 6 h, replicate number 1, timepoint 6 hours
[6] = 12 h, replicate number 1, timepoint 12 hours
[7] = 12 h, replicate number 2, timepoint 12 hours
[8] = 18 h, replicate number 1, timepoint 18 hours
[9] = 18 h, replicate number 2, timepoint 18 hours
[10] = 24 h, replicate number 1, timepoint 24 hours
[11] = 24 h, replicate number 2, timepoint 24 hours
[12] = 6 h, replicate number 2, timepoint 6 hours
[13] = 0 h, replicate number 1, timepoint 0 hours
Note: unitless GR value; below 1 slowed growth and below 0 cell loss.

SMILES	Growth Rate [1, 4]	Growth Rate [1, 5]	Growth Rate [1, 6]	Growth Rate [1, 7]	Growth Rate [1, 8]	Growth Rate [1, 9]	Growth Rate [1, 10]	Growth Rate [1, 11]	Growth Rate [2, 5]	Growth Rate [2, 12]	Growth Rate [2, 6]	Growth Rate [2, 7]	Growth Rate [2, 8]	Growth Rate [2, 10]	Growth Rate [3, 13]	Growth Rate [3, 6]	Growth Rate [3, 8]	Growth Rate [3, 9]	Growth Rate [3, 10]	Growth Rate [1, 12]	also measured
O=C(NCCO)c1cccc(-c2cc(Nc3ccc(OC(F)(F)F)cc3)ncn2)c1	0.6	-0.91	-0.72	0.04	-0.61	0.03	-0.55	0.06	-0.41	-0.4	-0.19	-0.13	0.05	0.15	-0.12	0.52	0.47	0.99	0.79	–	Growth Rate [2, 9]: 0.17; Growth Rate [2, 11]: 0.26; Growth Rate [3, 4]: 0.42; Growth Rate [3, 5]: 0.49; Growth Rate [3, 12]: 1; Growth Rate [3, 7]: 0.83; Growth Rate [3, 11]: 0.91
CO/C1=C/C(C)=C\[C@@H](C)[C@@H](O)[C@@H](C)C/C(C)=C\C=C/[C@H](OC)C([C@@H](C)[C@@H](O)[C@H](C)[C@@]2(O)C[C@@H](O)[C@H](C)[C@@H](C(C)C)O2)OC1=O (stereo not given in full)	-0.31	-0.77	-0.79	-0.56	-0.72	-0.46	-0.61	-0.4	-0.8	-0.9	-0.61	-0.69	-0.45	-0.36	–	0.37	0.23	0.18	0.14	-0.59	Growth Rate [1, 13]: 0.09; Growth Rate [2, 9]: -0.5; Growth Rate [2, 11]: -0.38; Growth Rate [3, 5]: 0.5; Growth Rate [3, 12]: 0.63; Growth Rate [3, 7]: 0.39; Growth Rate [3, 11]: 0.12
COCCCN1CCC(NC(=O)c2cc(Cl)c(N)c3c2OCC3)CC1 [PRUCALOPRIDE]	0.89	0.71	0.6	–	0.86	–	–	–	–	–	–	0.99	–	–	0.24	–	0	0.98	0.1	0.75	Growth Rate [1, 13]: 0.48; Growth Rate [3, 12]: 0.76; Growth Rate [3, 7]: 0.99
COc1ccc(CN(CCN(C)C)c2ccccn2)cc1 [PYRILAMINE]	0.99	0.36	–	–	–	–	–	–	–	0.74	0.94	0.74	–	–	0.52	–	–	0.91	1	0.26	Growth Rate [3, 11]: 0.96
COc1c(Nc2ccc(S(C)(=O)=O)nc2C)ncnc1OC1CCN(C(=O)OC(C)C)CC1 [ADP-597]	0.94	0.72	0.53	0.7	0.34	–	0.88	–	0.29	–	0.45	–	0.51	0.74	–	–	0.98	–	1	–	–
CN(C(=O)c1ccccc1)c1cc(N(C)c2ccc3c(c2)CCc2ccc(C(=O)NCCN4CCOCC4)cc2C3=O)ccc1F [FM-743]	0.69	-0.57	-0.68	-0.23	-0.66	-0.08	-0.58	-0.28	-0.43	0	-0.34	-0.27	-0.33	-0.25	0.89	–	0.81	0.66	0.74	-0.35	Growth Rate [1, 13]: 0.51; Growth Rate [2, 9]: -0.15; Growth Rate [2, 11]: -0.11; Growth Rate [3, 4]: 0.49; Growth Rate [3, 12]: 0.79; Growth Rate [3, 7]: 0.72; Growth Rate [3, 11]: 0.53
C[C@@](Cc1c[nH]c2ccccc12)(NC(=O)Nc1ccc([N+](=O)[O-])cc1)C(=O)NCC1(c2ccccn2)CCCCC1	–	-0.69	-0.66	-0.59	-0.63	-0.53	-0.6	-0.51	-0.16	-0.01	-0.39	-0.14	-0.33	-0.26	0.29	-0.03	-0.21	-0.3	-0.26	-0.88	Growth Rate [2, 9]: -0.15; Growth Rate [2, 11]: -0.13; Growth Rate [3, 5]: 0.28; Growth Rate [3, 12]: 0.12; Growth Rate [3, 7]: -0.2; Growth Rate [3, 11]: -0.21
Cl.O=C1CC[C@@]2(O)[C@H]3Cc4ccc(O)c5c4[C@@]2(CCN3CC2CC2)[C@H]1O5 [NALTREXONE HYDROCHLORIDE]	0.63	0.38	–	–	–	–	0.6	–	–	0.84	–	–	–	–	0.86	0.39	0.67	–	0.83	–	Growth Rate [1, 13]: 0.67; Growth Rate [2, 4]: 0.83; Growth Rate [3, 4]: -1; Growth Rate [3, 5]: -0.02; Growth Rate [3, 12]: 0.81; Growth Rate [3, 7]: 0.91
Br.Br.c1ncc(CC2CCNCC2)[nH]1	0.06	0.88	0.69	0.81	0.72	0.93	0.77	0.76	0.8	–	0.99	0.73	0.81	0.95	0.94	0.9	–	–	–	0.53	Growth Rate [1, 13]: 0.49; Growth Rate [2, 13]: 0.53; Growth Rate [2, 4]: 0.07; Growth Rate [2, 9]: 0.93; Growth Rate [2, 11]: 0.94; Growth Rate [3, 5]: 0.57
CCn1c(-c2nc3cc(C(=O)N4CCCC(N)C4)ccc3n2C)cc2ccccc21.Cl (stereo not given)	0.99	-0.75	-0.23	0.52	-0.08	0.56	0.15	0.6	0.72	–	0.44	–	0.73	0.83	-0.61	0.95	–	–	–	0.43	Growth Rate [2, 4]: -1; Growth Rate [3, 5]: 0.71
CCCCCCNC(=O)Nc1ccc(S(=O)(=O)Nc2ccc(CCNC[C@H](O)COc3ccc(O)cc3)cc2)cc1 [L-755507]	0.79	0.91	–	0.47	–	–	–	–	–	0.53	–	0.94	–	–	–	0.32	0.87	0.79	0.87	-0.46	Growth Rate [1, 13]: 0.5; Growth Rate [2, 13]: 0.4; Growth Rate [3, 5]: 0.25; Growth Rate [3, 12]: 0.75; Growth Rate [3, 7]: 0.7; Growth Rate [3, 11]: 0.89
NC(=O)c1cccc(-c2cc(Nc3ccc(OC(F)(F)F)cc3)ncn2)c1	–	-0.84	-0.48	0.37	-0.35	0.53	-0.05	0.46	-0.43	0.03	0.03	0.25	0.18	0.26	–	0.98	–	0.93	0.94	0.58	Growth Rate [2, 9]: 0.3; Growth Rate [2, 11]: 0.48
Brc1c(N=C2NCCN2)ccc2nccnc12.O=C(O)C(O)C(O)C(=O)O	0.6	0.39	0.82	0.94	0.86	0.83	0.87	0.91	0.47	0.95	0.79	0.72	0.92	0.83	0.29	0.41	0.78	0.91	0.89	0.7	Growth Rate [2, 13]: 0.76; Growth Rate [2, 4]: 0.92; Growth Rate [2, 11]: 0.88; Growth Rate [3, 5]: 0.6
